Read-outs that look alike come from different tables or passages of the source.
Experiments:
Type in all cases: cell-based
CHP-212 = assay: Cell Proliferation Assay ±NA, CHP-212; settings: Homo sapiens, CHP-212, autonomic ganglia, treatment time 72 hr
Procedure: (§1) The purpose of this assay is to measure the ability of a compound to inhibit proliferation of endometrium, kidney, adrenal gland, and autonomic ganglia cancer cell lines dependent on the NAMPT-mediated NAD^+ formation in the presence or absence of NA (10 μM) in vitro. One day before the planned initiation of compound treatment portion of the assay, one vial of assay ready frozen cells is thawed, and the cells are grown overnight in the media as shown in Table 3 under 5% CO2 at 37° C. Then, the cell layer is briefly rinsed with 0.25% (w/v) Trypsin-0.038% (w/v) EDTA solution followed with the addition of 3.0 ml of Trypsin-EDTA solution. Once the cell layer is dispersed, 8.0 ml of complete growth medium (Table 3) is added and cells are aspirated by gently pipetting. The cell suspension is transferred to a centrifuge tube and centrifuged at 800-1000 rpm for 3-5 minutes. The supernatant is discarded using a vacuum pump. The cell pellet is suspended in a complete medium by gently pipetting. The cell numbers are counted and adjusted to the appropriate density (Table 3). […] The bottom of each plate is pasted with a white back seal and luminescence is recorded using a Flexstation 3 with the following settings: Luminescence and integration time of 500 ms.

U031 = assay: Cell Proliferation Assay ±NA, U031; settings: U031, kidney, treatment time 72 hr
Procedure: as §1

SNG-M = assay: Cell Proliferation Assay ±NA, SNG-M; settings: endometrium, treatment time 72 hr
Procedure: as §1

RL95-2 = assay: Cell Proliferation Assay ±NA, RL95-2; settings: Homo sapiens, RL95-2, endometrium, treatment time 72 hr
Procedure: as §1

OS-RC-2 = assay: Cell Proliferation Assay ±NA, OS-RC-2; settings: Homo sapiens, OS-RC-2, kidney, treatment time 72 hr
Procedure: as §1

Caki-1 = assay: Cell Proliferation Assay ±NA, Caki-1; settings: Homo sapiens, Caki-1, kidney, treatment time 72 hr
Procedure: as §1

KLE = assay: Cell Proliferation Assay ±NA, KLE; settings: Homo sapiens, endometrium, treatment time 72 hr
Procedure: as §1

SW13 = assay: Cell Proliferation Assay ±NA, SW13; settings: Homo sapiens, SW13, adrenal gland, treatment time 72 hr
Procedure: as §1

COLO-684 = assay: Cell Proliferation Assay ±NA, COLO-684; settings: Homo sapiens, COLO-684, endometrium, treatment time 72 hr
Procedure: as §1

SN12C = assay: Cell Proliferation Assay ±NA, SN12C; settings: Homo sapiens, kidney, treatment time 72 hr
Procedure: as §1

[1] = NA 0.0 μM, read-out: IC50 (μM) NA (0.0 μM)
[2] = NA 10 μM, read-out: IC50 (μM) NA (10 μM)

## CC(C)(O)CS(=O)(=O)Nc1ccc2c(c1)CCN(C(=O)COc1cccnc1)C2 [Example 1, 2-Hydroxy-2-methyl-N-[2-[2-(3-pyridyloxy)acetyl]-3,4-dihydro-1H-isoquinolin-6-yl]propane-1-sulfonamide]
CHP-212; [1]
  IC50: 0.07 µM
CHP-212; [2]
  IC50: 0.07 µM
U031; [1]
  IC50: 0.06 µM
U031; [2]
  IC50: 0.06 µM
SNG-M; [1]
  IC50: 0.02 µM
SNG-M; [2]
  IC50: 0.02 µM
RL95-2; [1]
  IC50: 0.02 µM
RL95-2; [2]
  IC50: 0.02 µM
OS-RC-2; [1]
  IC50: > 2 µM
OS-RC-2; [2]
  IC50: > 2 µM
Caki-1; [1]
  IC50: 0.13 µM
Caki-1; [2]
  IC50: 0.11 µM
KLE; [1]
  IC50: 0.04 µM
KLE; [2]
  IC50: > 2 µM
SW13; [1]
  IC50: 0.05 µM
SW13; [2]
  IC50: 0.02 µM
COLO-684; [1]
  IC50: 0.03 µM
COLO-684; [2]
  IC50: > 2 µM
SN12C; [1]
  IC50: 0.06 µM
SN12C; [2]
  IC50: 0.05 µM
